We go through one compound from patent publication EP0099122A2, “Compositions comprising pepstatin and an histamine H2-receptor antagonist having an enhanced antiulcer activity” (Bristol-Myers Company, priority 1982, dated 1984).

Marks after values point to notes of the source that are not given here.

Experiment [1] relates to HCl-Induced Formation of Gastric Lesions. Kind of experiment: HCl-induced gastric erosions in rats (modified method of Robert et al.). Format: in vivo, Long Evans rats. Particulars: for enhancement of the inhibitory effect by pepstatin: plus 20 mg/kg pepstatin. The protocol:
In the tests described below, gastric erosions produced in rats by the oral instillation of 1.0 mL of 0.75N HC1 were compared with those in rats which had been pretreated with the most preferred compound of Formula I (of Example 1) or with that compound and pepstatin. Comparison tests utilizing pretreatment with the newer commercial product, ranitidine, and with ranitidine and pepstatin, are also shown. Ranitidine is about 4 and 6 times as potent as cimetidine as an inhibitor of gastric acid secretion by the oral route in the rat and dog, respectively.
A modification of the method of Robert et al., [Gastroenterology, 77, 433-443 (1979)] was employed to produce gastric erosions. Adult male, Long Evans rats weighing 280-300 g (Blue Spruce Farms, Alton, New York) were used. The animals were individually caged and food and water were removed 24 and 18 hours, respectively, prior to testing. On the following day, the test compound was administered orally to the animals 30 minutes before 1.0 mL of 0.75N HC1 was instilled into the stomach by gavage. Animals treated with the combination of the test compound and pepstatin received the test compound 30 minutes before, and a fixed amount of pepstatin (20 mg/kg po) 10 minutes before, the hydrochloric acid was administered. […] One hour after receiving the HC1 solution, the animals were sacrificed with an intraperitoneal injection of 0.2 mL of T-61®, a euthanasia solution (National Laboratories Corp.).
The stomachs were removed from the animals, cut along the greater curvature, opened, rinsed with saline and pinned out flat in a standard position for macroscopic examination and scoring of erosions. The stomachs were photographed with a Polaroid® Close Up camera (Polaroid Corporation) and scoring was determined from the photographs. For scoring purposes, only those erosions with a minimum length of 1 mm were considered. The severity of gastric ulceration was defined for each animal as the sum of the maximum continuous lengths (in mm) of the erosions satisfying the above criteria. Percent inhibition of lesion formation was defined as
(mm erosion, vehicle control') - (mm erosion, test agent) 100. (mm erosion, vehicle control)
Data were analyzed using the t-test for unpaired data' and ED50 values were calculated from the dose response data using probit analysis [Finney, Probit Analysis, 3rd ed., University Press, Cambridge, England (1971)].
The compound of Example 1 and ranitidine (synthesized by the Medicinal Chemistry Research Department of Bristol Laboratories, Division of.Bristol-Myers Company) were dissolved in one equivalent of HC1 and the pH adjusted to 5.5 with NaOH. A suspension of pepstatin (Banyu Pharmaceutical Co. Ltd.) in water was made by homogenizing the compound with a few drops of Tween-80® (Atlas Chemical Industries). Each of these compounds were administered orally by gavage in a volume of 2 mL/kg.

Another experiment deals with Gastric Fistula Rat. Nature of the experiment: Gastric antisecretory activity in the Gastric Fistula Rat. The class given is in vivo, Long Evans rats. Particulars: sc, 95% confidence limits in parentheses. The protocol:
Determination of Gastric Antisecretory Activity in the Gastric Fistula Rat
Male Long Evans rats weighing about 240-260 grams at the time of cannula implantation are used. […] The fistula components are designed and the operative procedure is carried out exactly as described in the above reference. Post operatively the animals are individually housed in solid bottom cages with sawdust and are allowed food and water ad libitum throughout the entire recovery period. Animals are not used for test purposes for at least 15 days after the operative procedure.
The animals are fasted but allowed water ad libitum for 20 hours before the testing procedure is to begin. Immediately prior to collection, the cannula is opened and the. stomach washed gently with 30-40 mL of warm saline or distilled water to remove any residual contents. The catheter is then screwed into the cannula in place of the plugging screw and the rat is placed in a clear plastic rectangular cage measuring 40 cm long, 15 cm wide and 13 cm high. The bottom of the cage has a slit approximately 1.5 cm wide and 25 cm long running down the center to accommodate the catheter which hangs through it. In this way the rat is not restricted and can move -freely about the cage during collection periods. The remainder of the assay is carried out as described by Ridley et al. [Research Comm. Chem. Path.
Gastric secretions collected during the first hour after washing the stomach are discarded as they may be contaminated. For oral evaluation, the catheter is then removed from the cannula and replaced with the plugging screw. Water (2 mL/kg) is administered orally via gastric intubation and the animal is returned to the cage for 45 minutes. After this time the plugging screw is removed and replaced with a catheter to which a small plastic vial has been attached to collect the gastric secretions. A two hour sample is collected (this represents the control secretion), the catheter removed and.replaced with the plugging screw. The test drug is now administered orally in a volume of 2 mL/kg via gastric intubation. Forty-five minutes later the plugging screw is again removed, replaced with the catheter attached to a small plastic vial and another 2 hour sample is collected. The secretions in the second sample are compared to those of the control sample in order to determine thee effects of the test drug.
When test compounds are to be evaluated parenterally, the animal is injected ip or sc with the test compound vehicle in a volume of 2 mL/kg immediately after discarding the initial 60 minute collection. A two hour sample is collected (control secretion) and the animals are injected either ip or sc with the test compound in a volume of 2 mL/kg. An additional two hour sample is collected and its secretions are compared to those of the control period to determing drug effects.
The samples are centrifuged in a graduated tube for volume determination. Titratable acidity is measured by titrating a one mL sample to pH 7.0 with 0.02N NaOH, using an Autoburet and an electrometric pH meter (Radiometer). Titratable acid output is calculated in microequivalents by multiplying the volume in milliliters by the acid concentration in milliequivalents per liter.
Results are expressed as percent inhibition relative to control readings. Dose response curves are constructed and ED50 values are calculated by regression analyses. At least three rats are used at each dosage level and a minimum of three dosage levels are utilized for determination of a dose response curve.

The next experiment has as its system gastric acid secretion. Kind of experiment: Inhibition of gastric acid secretion relative to cimetidine, various animal studies. The class given is in vivo. Particulars: inhibitors of gastric acid secretion, oral route. The protocol: Based on this potency difference, the oral dosage of the compounds of Examples 1 and 9 would be about 1/20 to 1/25 that of cimetidine, thus reducing the expected incidence of side effects. The usual oral dosage of cimetidine is 300 mg, given four times a day, while the usual dosage of the compounds of Examples 1 and 9 is about 12-15 mg, given four times a day. It was an object of this invention to further reduce the necessary dosage of the compounds of Formula I by the concomitant administration of a peptic activity- inhibitory amount of pepstatin. As will be shown below, such concomitant administration provides about a three-fold increase in potency compared with the administration of an equal amount of the compound of Formula I alone, thus permitting a further three-fold reduction in the dosage of the compound of Formula I.

On to `Nc1c(NCCCOc2cccc(CN3CCCCC3)c2)c(=O)c1=O` [Example 1], for which, in experiment [1] (compound alone versus compound plus pepstatin (20 mg/kg po)), the “Potency Ratio” value is 3.5. In addition, the “enhancement of the inhibitory effect by pepstatin” value in experiment [1] (Example 1 at 25 mg/kg) is listed as “the difference was not statistically significant”; in experiment [1] (Example 1 at 50 and 75 mg/kg, ranitidine at 25-100 mg/kg), “significantly enhanced the inhibitory effect”. Further, in experiment [1] (pretreatment po, compound alone, Example 1 at 25, 50 or 75 mg/kg, ranitidine at 25, 50, 75 or 100 mg/kg), the “formation of gastric erosions” value was “decreased the formation of gastric erosions in a dose-related manner”. Moreover, the ED50 turned out to be 115 mg/kg in experiment [1] (rat, compound po 30 min before 1.0 mL 0.75N HCl, compound alone, probit analysis, read-out: ED50 (mg/kg) for Inhibition of Ulcer Formation, Alone) and 0.023 µmol/kg in the experiment with Gastric Fistula Rat (Rattus norvegicus, read-out: ED50 sc). Besides, the “ED50 (mg/kg) for Inhibition of Ulcer Formation, with Pepstatin” value in experiment [1] (rat, compound po 30 min before and pepstatin 20 mg/kg po 10 min before 1.0 mL 0.75N HCl) came to 33 mg/kg. For the same compound, the “Potency Ratio [cimetidine = 1.0]” value with Gastric Fistula Rat is 162 (77-328)*. Moreover, the “times more potent than cimetidine” value in the experiment with gastric acid secretion was 20-25.
